Publication PMC12948427 (The Journal of Clinical Investigation, 2025)
Values joined by “and” are separate entries in the source; they are usually repeats but may differ in a detail not shown here. Equal values may be shown once. Read-outs that look alike come from different tables or passages of the source. Ends that are not written are not given here.

Columns and labels:
hHgs 1-390 protein [1] = target: T1, hHgs 1-390 protein (Homo sapiens, UniProt O14964)
hHgs 1-390 protein [2] = target: T1, hHgs 1-390 protein; assay: biochemical
MHV [3] = system: MHV
MHV [4] = system: MHV; set-up: species or system C57BL/6JGpt mice; settings: in vivo

T1 sequence (O14964 1-390): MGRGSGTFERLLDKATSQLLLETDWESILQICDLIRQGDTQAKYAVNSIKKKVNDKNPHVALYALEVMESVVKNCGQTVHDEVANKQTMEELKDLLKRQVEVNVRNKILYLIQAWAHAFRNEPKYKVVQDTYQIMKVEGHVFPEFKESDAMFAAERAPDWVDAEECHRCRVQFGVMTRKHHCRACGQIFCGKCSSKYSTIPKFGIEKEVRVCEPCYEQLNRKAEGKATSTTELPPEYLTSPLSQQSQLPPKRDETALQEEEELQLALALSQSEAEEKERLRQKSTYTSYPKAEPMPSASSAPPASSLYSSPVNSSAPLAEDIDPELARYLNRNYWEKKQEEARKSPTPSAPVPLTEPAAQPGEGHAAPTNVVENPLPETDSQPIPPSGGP

COc1ccc(N)cn1 [5-amino-2-methoxypyridine]
Polarization (hHgs 1-390 protein [1]; 0.00610352 uM): 137 | Polarization (hHgs 1-390 protein [1]; 0.0244141 uM): 154 and 132 | Polarization (hHgs 1-390 protein [1]; 0.0976562 uM): 127 and 143 | Polarization (hHgs 1-390 protein [1]; 0.390625 uM): 133 and 129 | Polarization (hHgs 1-390 protein [1]; 1.5625 uM): 103 and 111 | Polarization (hHgs 1-390 protein [1]; 6.25 uM): 88 and 79 | Polarization (hHgs 1-390 protein [1]; 25 uM): 61 | Polarization (hHgs 1-390 protein [1]; 100 uM): 51 and 48 | IC50 (hHgs 1-390 protein [2]): 3410 nM

COc1cc(OC)c2ccc(=O)oc2c1 [Citropten, citropten]
Polarization (hHgs 1-390 protein [1]; 0.00610352 uM): 144 | Polarization (hHgs 1-390 protein [1]; 0.0244141 uM): 145 and 146 | Polarization (hHgs 1-390 protein [1]; 0.0976562 uM): 135 and 136 | Polarization (hHgs 1-390 protein [1]; 0.390625 uM): 119 and 129 | Polarization (hHgs 1-390 protein [1]; 1.5625 uM): 75 and 87 | Polarization (hHgs 1-390 protein [1]; 6.25 uM): 26 and 35 | cell viability, Figures S9A, B, D-F (17Cl-1 cells; concentration 0.01): 100 | cell viability, Figures S9A, B, D-F (17Cl-1 cells; concentration 0.03): 100 | cell viability, Figures S9A, B, D-F (17Cl-1 cells; concentration 0.1): 100 | cell viability, Figures S9A, B, D-F (17Cl-1 cells; concentration 0.3): 100 | cell viability, Figures S9A, B, D-F (17Cl-1 cells; concentration 1): 100 | cell viability, Figures S9A, B, D-F (17Cl-1 cells; concentration 3): 100 | cell viability, Figures S9A, B, D-F (17Cl-1 cells; concentration 10): 100 | cell viability, Figures S9A, B, D-F (17Cl-1 cells; concentration 25): 100 and 98.7013 and 97.6623 | viability of infected cells (rescue of cytopathic effect), Figures S9G-L (MHV [3]; concentration 10): 49.655 and 47.1823 and 44.4221 | viability of infected cells (rescue of cytopathic effect), Figures S9G-L (MHV [3]; concentration 30): 48.2749 and 46.3772 and 44.6233 | viability of infected cells (rescue of cytopathic effect), Figures S9G-L (MHV [3]; concentration 100): 44.4221 and 42.6394 and 45.4572 | viability of infected cells (rescue of cytopathic effect), Figures S9G-L (MHV [3]; concentration 300): 47.7573 and 43.5308 and 44.5946 | viability of infected cells (rescue of cytopathic effect), Figures S9G-L (MHV [3]; concentration 1000): 47.3548 and 44.7384 and 49.3099 | viability of infected cells (rescue of cytopathic effect), Figures S9G-L (MHV [3]; concentration 3000): 49.77 and 48.2461 and 50.575 | viability of infected cells (rescue of cytopathic effect), Figures S9G-L (MHV [3]; concentration 10000): 55.1466 and 56.7568 | viability of infected cells (rescue of cytopathic effect), Figures S9G-L (MHV [3]; concentration 25000): 67.4813 and 66.8775 and 68.0851 | IC50 (hHgs 1-390 protein [2]): 2170 nM

GAIRLHGRLIVAGIVLESEQPPRRRQRRKKRG (also: D-retroinverso) [M161-DRI, M161 modified with d-retroinverso (DRI) isoform]
readout per mouse, Figure S8P (quantity not given) (MHV [4]): 70 and 160 and 190 and 40 and 290 and 100 | score per mouse, Figure S8Q (MHV [4]): 1 and 0 | lung injury (histology) (MHV [4]; mouse, iv, 15 mg/kg): alleviated | viral gRNA in the lung (MHV [4]; mouse, iv, 15 mg/kg): significantly decreased | virus titer in the lung (plaque assay) (MHV [4]; mouse, iv, 15 mg/kg): significantly decreased
